Test system: Caco-2 monolayer A->B permeability, LC-MS/MS, 90 min
Experiment: Inhibitors of Human alpha-Glucosidase: Caco-2 Cell Permeability Profiling
Details: active compounds read high
Text: Alpha-glucosidase is responsible for the hydrolysis of terminal, non-reducing 1,4-linked alpha-D-glucose residues, which releases alpha-D-glucose. It is a lysosomal hydrolase that is required for the degradation of a small percentage (1-3%) of cellular glycogen in humans. Deficiency of this enzyme results in glycogen-storage disease type II (GSDII), also referred to as Pompe disease, an autosomal recessive disorder. Structurally normal glycogen is accumulated in the lysosomes and cytoplasm in affected patients, primarily in muscle tissues. Excessive glycogen storage within lysosomes may interrupt normal functioning of other organelles and leads to cellular injury. In turn, this leads to enlargement and dysfunction of the entire organ involved (eg: cardiomyopathy and muscle weakness). This bioassays provides profiling data on Caco-2 cell permeability of leads compounds developed for the alpha-Glucosidase project. This in vitro model is often predictive of in vivo absorption of the compound across the intestinal lining by using a Caco2-cell line and measuring the compound's rate of transport […]. NIH Chemical Genomics Center [NCGC] NIH Molecular Libraries Probe Production Centers Network [MLPCN] […]
1. […] The T0, LY and T90, LY plates are read by FlexStation 3 at excitation of 485 nm and emission of 535 nm to determine LY permeability. […]

## CC(=O)c1ccc(N2CCN(S(=O)(=O)c3ccc4c(c3)CC(=O)N4)CC2)cc1
  Papp A->B: 21.3 10^-6 cm/s

Source: PubChem BioAssay AID504686 (National Center for Advancing Translational Sciences (NCATS), 2011)
